The results in this text go back to patent US20240270821A1, “GIP/GLP1/GCG TRI-RECEPTOR AGONISTS AND USES THEREOF” (priority 2023, published 2024).

What all share (assay type): cell-based
In assay [1] the target is T1, hGIPR (Homo sapiens, UniProt P48546).
T1 sequence (P48546 22-466): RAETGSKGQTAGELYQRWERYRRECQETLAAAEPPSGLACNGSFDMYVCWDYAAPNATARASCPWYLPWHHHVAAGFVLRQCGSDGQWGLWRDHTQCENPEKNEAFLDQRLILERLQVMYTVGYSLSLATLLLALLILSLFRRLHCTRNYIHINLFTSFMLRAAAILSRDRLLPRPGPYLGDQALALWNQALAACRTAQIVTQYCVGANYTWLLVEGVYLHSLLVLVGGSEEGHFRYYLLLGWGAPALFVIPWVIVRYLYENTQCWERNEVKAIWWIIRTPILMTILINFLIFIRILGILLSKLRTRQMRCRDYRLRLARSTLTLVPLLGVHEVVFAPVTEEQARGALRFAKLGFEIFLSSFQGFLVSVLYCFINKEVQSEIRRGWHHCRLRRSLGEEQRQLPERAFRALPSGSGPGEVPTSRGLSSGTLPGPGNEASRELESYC
As to the kind of experiment: Functional cAMP activity in the presence of 1% HSA. Conditions: read-out: cAMP Rel EC50, hGIPR.

Assay [2] has as its target T2, hGLP-1R (Homo sapiens, UniProt P43220). As to the kind of experiment: Functional cAMP activity in the presence of 1% HSA. Conditions: read-out: cAMP Rel EC50, hGLP-1R.
A further assay addresses human GcgR (Homo sapiens, UniProt P47871). Briefly: Functional cAMP activity in the presence of 1% HSA. The note with it: read-out: cAMP Rel EC50, hGcgR.
Assay [3] concerns the target T1, hGIPR. Briefly: Functional cAMP activation in the presence of 0.1% casein (no HSA). Conditions: read-out: Relative cAMP EC50, hGIPR.
Description: After a 30-minute incubation at 37° C., the resulting increase in intracellular cAMP is quantitatively determined using the CisBio CAMP Dynamic 2 HTRF Assay Kit (62AM4PEJ). Briefly, cAMP levels within the cell are detected by adding the cAMP-d2 conjugate in cell lysis buffer followed by the antibody anti-cAMP-Eu^3+-Cryptate, also in cell lysis buffer.
Intracellular cAMP levels are determined by extrapolation using a standard curve. Dose response curves of compounds are plotted as the percentage of stimulation normalized to minimum (buffer only) and maximum (maximum concentration of each control ligand) values and analyzed using a four parameter non-linear regression fit with a variable slope (Genedata Screener 13). EC50 is the concentration of compound causing half-maximal simulation in a dose response curve. Each relative EC50 value for the Geometric mean calculation is determined from a curve fitting.
For assay [4], the target named is T2, hGLP-1R. The description is as above. The note with it: read-out: Relative cAMP EC50, hGLP-1R.
In a further assay the target is hGcgR (Homo sapiens, UniProt P47871). The assay is described as above. Conditions: read-out: Relative cAMP EC50, hGcgR.
Chain of hGcgR (P47871 26-477): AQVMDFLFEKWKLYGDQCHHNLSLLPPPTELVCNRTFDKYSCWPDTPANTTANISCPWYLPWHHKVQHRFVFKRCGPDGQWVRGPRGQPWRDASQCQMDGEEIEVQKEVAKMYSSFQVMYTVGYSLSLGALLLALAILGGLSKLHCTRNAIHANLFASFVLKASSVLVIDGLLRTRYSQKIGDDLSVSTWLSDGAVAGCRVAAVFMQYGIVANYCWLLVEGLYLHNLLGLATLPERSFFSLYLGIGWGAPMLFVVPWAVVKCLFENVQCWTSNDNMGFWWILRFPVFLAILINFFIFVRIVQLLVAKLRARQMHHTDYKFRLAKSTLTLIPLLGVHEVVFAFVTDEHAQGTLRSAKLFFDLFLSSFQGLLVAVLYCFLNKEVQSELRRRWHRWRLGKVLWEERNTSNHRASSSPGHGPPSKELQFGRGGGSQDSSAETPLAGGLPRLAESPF
The mark [5] stands for this setting: 0.1% casein, no HSA, geometric mean.
Where [6] appears, read: HEK-293 clonal cell line, 1% HSA, geometric mean of relative EC50.
Where [7] appears, read: in the presence of 0.1% casein (no HSA), geometric mean of relative EC50.

pEC50: −log10 of the molar value. Like-named read-outs stand apart in the source and are kept apart here. Starred links: 1 amine or outer side, 2 acyl side, 3 side chain; linkers in the order of their positions; H or OH if unused. Non-standard residues stand in square brackets, D forms with d. Groups on a side chain read outwards from the residue. *: point of attachment. C18 diacid = O=C(O)CCCCCCCCCCCCCCCCC(=O)*; αMePhe(2-F) = C[C@](N)(Cc1ccccc1F)C(=O)O; γGlu = O=C(O)[C@H](CCC(=O)[*:2])N[*:1]; αMe4Pal = C[C@](N)(Cc1ccncc1)C(=O)O; αMeY = C[C@](N)(Cc1ccc(O)cc1)C(=O)O; 4Pal = N[C@@H](Cc1ccncc1)C(=O)O; αMeL = CC(C)C[C@](C)(N)C(=O)O; αMeS = C[C@](N)(CO)C(=O)O; Orn = NCCC[C@H](N)C(=O)O; AEEA = NCCOCCOCC(=O)O; Aib = CC(C)(N)C(=O)O
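Wherever Relative cAMP EC50, hGIPR is given: intracellular cAMP rise after 30 min at 37 °C read by HTRF against a standard curve, scaled between buffer alone (0%) and top control ligand concentration (100%), four-parameter fit.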
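Wherever Relative cAMP EC50, hGLP-1R is given: intracellular cAMP rise after 30 min at 37 °C read by HTRF, normalized between buffer only (0%) and maximal control ligand (100%), four-parameter variable-slope fit.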
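Wherever Relative cAMP EC50, hGcgR is given: intracellular cAMP rise after 30 min at 37 °C, read by HTRF against a cAMP standard curve, scaled from buffer only (0%) to maximal control ligand response (100%).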

T2 sequence (P43220 24-463): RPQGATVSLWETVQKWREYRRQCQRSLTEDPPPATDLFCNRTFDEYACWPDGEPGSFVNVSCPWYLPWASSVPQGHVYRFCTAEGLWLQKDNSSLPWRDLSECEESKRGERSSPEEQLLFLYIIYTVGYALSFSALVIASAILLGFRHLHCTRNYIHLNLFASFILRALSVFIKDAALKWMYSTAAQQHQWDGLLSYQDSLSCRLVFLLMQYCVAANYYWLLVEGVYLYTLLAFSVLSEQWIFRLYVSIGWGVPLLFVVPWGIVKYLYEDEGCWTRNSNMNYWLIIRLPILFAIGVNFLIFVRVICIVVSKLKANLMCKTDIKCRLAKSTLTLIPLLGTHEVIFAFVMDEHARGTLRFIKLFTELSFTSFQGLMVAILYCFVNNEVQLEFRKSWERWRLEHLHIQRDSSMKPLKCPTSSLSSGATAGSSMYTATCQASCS
Chain of human GcgR (P47871 26-477): as the sequence (P47871 26-477) above

Regarding “H-Y[Aib]QGT[αMePhe(2-F)]TSD[4Pal]SI[αMeL]LD[Orn]K([γGlu-γGlu-C18 diacid])AQ[αMe4Pal][Orn]FI[dE][αMeY]LIEGGPSSGEPPPSGE-NH2 [Example 682]”, the pEC50 – broadly, the EC50 on a negative log10 scale, so that one unit is a factor of ten – was 9.38 on hGIPR [1]; 7.85 at hGLP-1R [2]; 6.90 on human GcgR; 11.18 at hGIPR [3]; 9.67 at hGLP-1R [4]; 8.72 on hGcgR.

For the substance “H-Y[Aib]QGT[αMePhe(2-F)]TSD[4Pal]SI[αMeL]LD[Orn][Orn]([γGlu-γGlu-C18 diacid])AQ[αMe4Pal][Orn]FI[dE][αMeY]LIEGGPSSGEPPPETE-NH2 [Example 1209]”, the pEC50 is 9.25 on hGIPR [1]; 7.42 at hGLP-1R [2]; 6.91 at human GcgR; 11.09 at hGIPR [3] (setting [5]); 9.39 on hGLP-1R [4] (setting [5]); 9.01 on hGcgR (setting [5]).

For “H-Y[Aib]QGT[αMePhe(2-F)]TSD[4Pal][αMeS]ILLD[Orn]K([γGlu-γGlu-C18 diacid])AQ[Aib][Orn]FI[dE]YLIEGGPSSGEPPPEGAEE-NH2 [Example 604]”, the negative logarithm of the EC50 (pEC50) at hGIPR [1] is 8.32; at hGLP-1R [2] it was 7.29; on human GcgR it was 6.37; at hGIPR [3] it was 9.79; on hGLP-1R [4] it was 9.15; at hGcgR, 8.26.

Take “H-Y[Aib]QGT[αMePhe(2-F)]TSD[4Pal][αMeS]ILLD[Orn]K([γGlu-γGlu-C18 diacid])AQ[Aib][Orn]FI[dE]YLIEGGPSSGEPPPEGSEE-NH2 [Example 603]”: the pEC50 is 8.30 at hGIPR [1]; 7.31 at hGLP-1R [2]; 6.38 on human GcgR; 9.99 at hGIPR [3]; 9.16 at hGLP-1R [4]; 8.27 at hGcgR.

For the substance “H-Y[Aib]QGT[αMePhe(2-F)]TSD[4Pal][αMeS]ILLD[Orn]K([γGlu-γGlu-C18 diacid])AQ[Aib][Orn]FI[dE]YLIEGGPSSGEPPPEGTEE-NH2 [Example 556]”, the negative logarithm of the EC50 (pEC50) at hGIPR [1] is 8.26; on hGLP-1R [2], 7.32; on human GcgR, 6.44; at hGIPR [3], 10.06; at hGLP-1R [4], 9.25; on hGcgR, 8.38.

Consider “H-Y[Aib]QGT[αMePhe(2-F)]TSD[4Pal][αMeS]ILLD[Orn]K([γGlu-γGlu-C18 diacid])AQ[Aib][Orn]FI[dE]YLIEGGPSSGEPPPEGTEEE-NH2 [Example 577]”, for which the pEC50 at hGIPR [1] was 8.00; at hGLP-1R [2], 7.09; at human GcgR, 6.03; on hGIPR [3] it was 9.99; at hGLP-1R [4], 9.03; at hGcgR, 8.19.

As for “H-Y[Aib]QGT[αMePhe(2-F)]TSD[4Pal][αMeS]ILLD[Orn]K([γGlu-γGlu-C18 diacid])AQ[Aib][Orn]FI[dE]YLIEGGPSSGEPPPSGTE-NH2 [Example 531]”, the pEC50 was 8.28 on hGIPR [1]; 7.42 at hGLP-1R [2]; 6.33 on human GcgR; 10.16 on hGIPR [3]; 9.45 at hGLP-1R [4]; 8.42 at hGcgR.

For “H-Y[Aib]QGT[αMePhe(2-F)]TSD[4Pal][αMeS]ILLD[Orn]K([γGlu-γGlu-C18 diacid])AQ[Aib][Orn]FI[dE]YLIEGGPSSGEPPPSGTEE-NH2 [Example 576]”, the negative-log EC50 (pEC50) at hGIPR [1] is 8.09; on hGLP-1R [2], 7.25; on human GcgR it was 6.19; at hGIPR [3] it was 10.14; on hGLP-1R [4] it was 9.28; on hGcgR, 8.20.

Take “H-Y[Aib]QGT[αMePhe(2-F)]TSD[4Pal][αMeS]ILLD[Orn]K([γGlu-γGlu-C18 diacid])AQ[Aib][Orn]FI[dE][αMeY]LQEGGPSSGEPPPEGAEE-NH2 [Example 574]”: the pEC50 at hGIPR [1] is 7.69; on hGLP-1R [2], 7.43; on human GcgR, 6.36; at hGIPR [3] it was 9.63; on hGLP-1R [4], 9.30; on hGcgR it was 8.30.

For “H-Y[Aib]QGT[αMePhe(2-F)]TSD[4Pal][αMeS]ILLD[Orn]K([γGlu-γGlu-C18 diacid])AQ[Aib][Orn]FI[dE][αMeY]LQEGGPSSGEPPPSGAE-NH2 [Example 547]”, the pEC50 at hGIPR [1] was 8.14; at hGLP-1R [2], 7.56; on human GcgR it was 6.63; on hGIPR [3], 9.82; at hGLP-1R [4], 9.47; on hGcgR, 8.42.

Regarding “H-Y[Aib]QGT[αMePhe(2-F)]TSD[4Pal][αMeS]ILLD[Orn]K([γGlu-γGlu-C18 diacid])AQ[Aib][Orn]FI[dE][αMeY]LQEGGPSSGEPPPSGAEE-NH2 [Example 575]”, the pEC50 on hGIPR [1] is 7.79; at hGLP-1R [2] it was 7.43; at human GcgR, 6.32; on hGIPR [3], 9.49; at hGLP-1R [4] it was 9.36; at hGcgR, 8.43.

“H-Y[Aib]QGT[αMePhe(2-F)]TSD[4Pal][αMeS]I[αMeL]LD[Orn]K([AEEA-AEEA-γGlu-C18 diacid])AQ[Aib][Orn]FIEYLIEGGPSSGAPEPSEG-NH2 [Example 492]”: the pEC50 on hGIPR [1] was 9.08; on hGLP-1R [2] it was 8.01; on human GcgR, 6.89; on hGIPR [3] it was 10.92; on hGLP-1R [4], 9.84; at hGcgR, 8.87.

As to “H-Y[Aib]QGT[αMePhe(2-F)]TSD[4Pal][αMeS]I[αMeL]LD[Orn]K([AEEA-AEEA-γGlu-C18 diacid])AQ[Aib][Orn]FIEYLIEGGPSSGEPPPSEG-NH2 [Example 491]”, the pEC50 at hGIPR [1] is 9.16; at hGLP-1R [2], 8.02; on human GcgR it was 6.80; on hGIPR [3] it was 10.90; on hGLP-1R [4] it was 9.77; on hGcgR it was 8.80.

Take “H-Y[Aib]QGT[αMePhe(2-F)]TSD[4Pal][αMeS]I[αMeL]LD[Orn]K([AEEA-AEEA-γGlu-C18 diacid])AQ[αMe4Pal]EFI[dE][αMeY]LIEGGPSSGEPPPSGS-NH2 [Example 1208]”: the pEC50 is 9.10 at hGIPR [1]; 7.35 at hGLP-1R [2]; 6.35 at human GcgR; 11.04 on hGIPR [3] (setting [5]); 9.28 at hGLP-1R [4] (setting [5]); 8.45 at hGcgR (setting [5]).

“H-Y[Aib]QGT[αMePhe(2-F)]TSD[4Pal][αMeS]I[αMeL]LD[Orn]K([AEEA-γGlu-C18 diacid])AA[Aib]EFI[dE][αMeY]LIEGGPSSGAPPPSGEE-NH2 [Example 703]”: the pEC50 at hGIPR [1] (setting [6]) is 9.02; on hGLP-1R [2] (setting [6]), 7.57; at human GcgR (setting [6]) it was 6.70; at hGIPR [3] (setting [7]), 11.00; on hGLP-1R [4] (setting [7]) it was 9.63; at hGcgR (setting [7]), 8.81.

In the case of “H-Y[Aib]QGT[αMePhe(2-F)]TSD[4Pal][αMeS]I[αMeL]LD[Orn]K([AEEA-γGlu-C18 diacid])AA[Aib]EFI[dE][αMeY]LIEGGPSSGAPPPSGQ-OH [Example 722]”, the pEC50 on hGIPR [1] is 9.02; at hGLP-1R [2], 7.57; at human GcgR it was 6.77; at hGIPR [3], 11.00; at hGLP-1R [4], 9.60; at hGcgR, 8.77.

Turning to “H-Y[Aib]QGT[αMePhe(2-F)]TSD[4Pal][αMeS]I[αMeL]LD[Orn]K([AEEA-γGlu-C18 diacid])AA[Aib]EFI[dE][αMeY]LIEGGPSSGAPPPSGTEE-NH2 [Example 725]”, the negative-log EC50 (pEC50) at hGIPR [1] was 8.86; on hGLP-1R [2], 7.54; at human GcgR it was 6.61; on hGIPR [3], 10.90; at hGLP-1R [4] it was 9.59; on hGcgR it was 8.83.

With “H-Y[Aib]QGT[αMePhe(2-F)]TSD[4Pal][αMeS]I[αMeL]LD[Orn]K([AEEA-γGlu-C18 diacid])AA[Aib]EFI[dE][αMeY]LIEGGPSSGAPPPSGTEQ-OH [Example 726]”, the pEC50 is 8.91 at hGIPR [1]; 7.48 at hGLP-1R [2]; 6.65 on human GcgR; 10.89 on hGIPR [3]; 9.61 on hGLP-1R [4]; 8.77 on hGcgR.

“H-Y[Aib]QGT[αMePhe(2-F)]TSD[4Pal][αMeS]I[αMeL]LD[Orn]K([AEEA-γGlu-C18 diacid])AA[Aib]EFI[dE][αMeY]LIEGGPSSGAPPPSGTGQ-OH [Example 724]”: the pEC50 was 8.97 on hGIPR [1]; 7.58 on hGLP-1R [2]; 6.68 on human GcgR; 10.99 at hGIPR [3]; 9.59 on hGLP-1R [4]; 8.76 on hGcgR.
